Values after ≈ are worked out from the molar mass of the structure shown. Structures can show the parent of a compound that is named as a salt. Where two headings read alike, the source gives them in different places.
Legend:
Plasmodium falciparum K1 = assay: Chloroquine resistant-Plasmodium falciparum growth inhibition screening test; assay type: cell-based; conditions: for Selective toxicity: EC50 against rat L6 cells / EC50 against P. falciparum K1; for EC50: Plasmodium falciparum, Table 2, unit inferred, chloroquine-resistant K1 strain, read-out: P. falciparum K1
Procedure: In the present experiment, protozoa of plasmodium falsiparum K1 strain was used. RPMI-1640 medium sterilized with a filter to which human serum was added to be 5%, was used in the experiment. Malarial parasites were cultured under 3% O2 concentration, 4% CO2 concentration, 93% N2 concentration, and at a temperature of 37° C.
The compounds of the present invention to be used in the present test and the positive control drug (chloroquine) were dissolved in DMSO to make a test solution of a predetermined concentration. Cultured malaria parasite infected-erythrocytes were collected by centrifugation, and diluted with non-infected erythrocyte so that the early infection rate was 0.15%. Hematocrit level at that time was 2.5%.
200 μL of malaria infected solution was added to wells of a 96-well culture plate, and adjusted by adding a test solution containing drug of a predetermined concentration or a drug-free DMSO. Test solutions were taken by duplicates.
[…] […] Radiation intensity was measured with a beta plate liquid scintillation counter (Wallac), and malarial parasite infection rates of the test solution added group and the control group were calculated.
Growth inhibition rate (%)={1−(b−a)/(c−a)}×100 • a: early infection rate • b: infection rate when test solution was added • c: infection rate of the control 3. Growth Inhibition Test of Rat L6 Cells
Antimalarial activity of a sample was estimated from EC50 values of the sample against chloroquine resistant-Plasmodium falciparum and rat L6 cells. […] It means that the larger the value of the selection toxity, the less the risk of the side effect is. Chemotherapy index=(EC50 value of a sample against rat L6 cells)/(EC50 value of a sample against chloroquine resistant-Plasmodium falsiparum)

Rat L6 cells = assay: Growth inhibition test of rat L6 cells; assay type: cell-based; conditions: Table 2, unit inferred, 72 hours, read-out: Cytoxicity L6
Procedure: Rat derived-L6 cells (rat skeletal myoblast cell) were used. A medium, RPMI1640 medium was supplemented so that L-glutamin (200 mM) is 1%, and fetal bovine serum 10%, and the medium was cultured under CO2 concentration 5%, at 37° C.
The compounds of the present invention and the control drugs to be used in the test were dissolved in DMSO, to make a test solution of a predetermined concentration.
Pre-culture was conducted and medium containing cells which have entered the logarithmic growth phase was taken to wells of a 96-well culture plate. Then, a test solution containing drug of a predetermined concentration or a drug-free DMSO was added. Test solutions were taken by duplicates.
Culture plate was cultured for 72 hours in an incubator, to test the growth inhibition activity. Test was conducted as follows. 10 μL of Alamar Blue aqueous solution was added to each well, and the resultant was further cultured for 2 hours. Next, the culture plate was placed on a fluorescent micro-plate reader (Spectramax Gemeni XS; US Molecular Device), radiated at an excited wavelength of 536 nm. Fluorescent intensity was measured at 588 nm, and residual rate of L6 cells of the test solution added group, and that of the control was calculated.
Growth inhibition rate (%)={(C−A)/(B−A)}×100 • A: Primary cell count • B: cell count of control, 3 days after • C: cell count of wells added with a sample, 3 days after 4. Determination of Drug Efficacy Against Chloroquine Resistant-Plasmodium

[1] = system: Plasmodium berghei NK65 strain; assay: Cure test by oral administration to mice infected with malaria; assay type: in vivo; conditions: for inhibition in vivo at 100 mg/kg: Plasmodium berghei; for Days of survival: mean days to death minus that of control mice; for Effectiveness in the in vivo malaria test, in words: oral administration to mice infected with rodent malaria
Procedure: In this experiment, rodent malaria parasites (the Plasmodium berghei NK65 strain) were used.
The infected blood to be used was subcultured in ICR female SPF mice infected by intraperitoneal or tail vein administration at 4 to 6 weeks old (20 to 26 g). […] Thereafter, based on the number of red cells (cells/ml) and the rate of infection by the protozoans, the blood was diluted with phys'iological saline such that a density of […] malaria parasites/1 ml dose was attained. This was used for infection of uninfected mice (ICR female mice, 5 weeks old) in an amount of 0.2 ml/20 g body weight, through the tail vein (Day-0). The compound used in the test was dissolved in 10% DMSO solution (a mixture of 1 ml of DMSO and 9 ml of 5% glucose solution).
Each group contained 4 mice, and the compound was orally administered to the mice 24 hours after their infection with malaria (Day-1), in an amount calculated such that 100 mg of the compound was administered per 1 kg of the body weight of a mouse. On the other hand, in terms of cases in which the amount was calculated such that 30 mg of the compound was administered per 1 kg of the body weight of a mouse, the oral administration was carried out a total of three times, that is, 24 hours (Day-1), 48 hours (Day-2) and 72 hours (Day-3) after the infection of malaria.
Blood was collected from the tails of each mouse 96 hours (Day-4) and 144 hours (Day-6) after the infection with malaria, and thin blood films were prepared. Under the microscope, the numbers of infection of malaria parasites in the group to which the compound was administered and the control group (to which the compound was not administered) were measured, and the rates of infection with malaria parasites (Parasitemia) were calculated.
From the rate of infection with malaria parasites calculated as above, the cure rate (Suppression) in the case of administration of the drug was calculated according to the following equation. Cure rate: Suppression (%)=(B−A)/B×100
A: Rate of infection with the protozoans in a mouse to which the present test compound was administered
B: Rate of infection with the parasites in a control mouse (to which the compound was not administered) Days of survival: MSD (day)=C−D
C: the average number of days from the date of infection with malaria to the date of death in the mice to which the present test compound was administered
D: The average number of days from the date of infection with malaria to the date of death in the 4 individuals of control mice (to which the compound was not administered)
Further, by observation of changes in the body weight, hair glossiness and the like of each mouse, side effects such as acute toxicity due to administration of the compound were evaluated.

[2] = 96 h, oral, 100 mg/kg, 1 dose, infected ICR mice, suppression vs control, read-out: Cure rate (%) Day-4
[3] = 144 h, oral, 100 mg/kg, 1 dose, infected ICR mice, suppression vs control, read-out: Cure rate (%) Day-6
[4] = po, 96 h, read-out: Cure rate (%) Day-4
[5] = po, 144 h, read-out: Cure rate (%) Day-6

Structure (SMILES) | melting point [°C] | inhibition in vivo at 100 mg/kg [1, 2] [%] | inhibition in vivo at 100 mg/kg [1, 3] [%] | Days of survival ([1]; oral, 100 mg/kg, 1 dose) [days] | Effectiveness in the in vivo malaria test, in words [1] | also measured
CCN(CC)c1cc(C)c2c(c1)OC1=CC(Nc3cccnc3)c3ccccc3C1=N2 (stereo not shown) (as salt: HCl) [Compound 1b, N,N-Diethyl-11methyl-5-(pyridin-3-ylamino)-5H-benzo[a]phenoxazin-9-amine] | 161.6 to 163.1 |  |  |  |  | 
CCN(CC)c1cc(C)c2c(c1)OC1=CC(Nc3ccncc3)c3ccccc3C1=N2 (stereo not shown) (as salt: HCl) [Compound 1c, N,N-Diethyl-11-methyl-5-(pyridin-4-ylamino)-5H-benzo[a]phenoxazin-9-amine] | > 300 |  |  |  |  | 
CCN(CC)c1ccc2nc3c4ccccc4c(=Nc4cccnc4)cc-3oc2c1 [Compound 1N, N,N-Diethyl-5-(pyridin-3-ylimino)-5H-benzo[a]phenoxazin-9-amine] |  | 41 | 0 | 0 |  | Selective toxicity (Plasmodium falciparum K1): 5123; EC50 (Plasmodium falciparum K1): 0.009 µg/mL (≈ 0.0228 µM); EC50 (Rat L6 cells): 46.1 µg/mL (≈ 117 µM)
c1ccc(/N=c2/cc3oc4cc(N5CCOCC5)ccc4nc-3c3ccccc23)nc1 [Compound 1O, N-(9-Morphlino-5H-benzo[a]phenoxazin-5-ylidene)pyridin-2-amine] |  | 81 | 60 | 0.6 |  | Selective toxicity (Plasmodium falciparum K1): 1386; EC50 (Plasmodium falciparum K1): 0.015 µg/mL (≈ 0.0367 µM); EC50 (Rat L6 cells): 20.8 µg/mL (≈ 50.9 µM)
CCN(CCNS(C)(=O)=O)c1cc(C)c2nc3c4ccccc4c(=Nc4cccnc4)cc-3oc2c1 [Compound 1T, N-Ethyl-N-(2-methansulfonamidylethyl)-11-methyl-5-(pyridine-3-ylimino)-5H-benzo[a]phenoxazin-9-amine] |  | 96.5 | 79.4 | 13.3 | excellent cure effects | Selective toxicity (Plasmodium falciparum K1): 2988; EC50 (Plasmodium falciparum K1): 0.008 µg/mL (≈ 0.0159 µM); EC50 (Rat L6 cells): 23.9 µg/mL (≈ 47.7 µM)
CCN(CC)c1ccc2nc3c4ccccc4/c(=N\c4ccccc4)cc-3oc2c1 [Compound 1U, reference compound] |  |  |  | 0.8 | effectiveness was hardly observed | inhibition in vivo at 100 mg/kg [1, 4]: 0%; inhibition in vivo at 100 mg/kg [1, 5]: 16.8%
CCN(CC)c1ccc2nc3c4ccccc4/c(=N\c4ccc(C)cc4)cc-3oc2c1 [Compound 1V, reference compound] |  |  |  | 0.8 | effectiveness was hardly observed | inhibition in vivo at 100 mg/kg [1, 4]: 0%; inhibition in vivo at 100 mg/kg [1, 5]: 11.4%
CCN(CC)c1ccc2nc3c(cc(N)c4ccccc43)[o+]c2c1 [Nile blue A, reference compound] |  | 15 | 5 | 0.3 | did not show effectiveness | 
CCN(CC)c1ccc2nc3c4ccccc4c(=O)cc-3oc2c1 [Nile red, reference compound] |  | 16 | 3 | 0 | did not show effectiveness | 
CCNc1cc2[o+]c3cc(NCC)c4ccccc4c3nc2cc1C [Oxazin 170 perchlorate, reference compound] |  | 40 | 57 | 1.3 | did not show effectiveness | 

More lines, main results first:

melting point [°C] | Structure (SMILES) | inhibition in vivo at 100 mg/kg [1, 2] [%] | inhibition in vivo at 100 mg/kg [1, 3] [%] | Days of survival ([1]; oral, 100 mg/kg, 1 dose) [days] | Effectiveness in the in vivo malaria test, in words [1] | also measured
167.2 to 168.4 | CCN(CC)c1cc(C)c2c(c1)OC1=CC(Nc3ccccn3)c3ccccc3C1=N2 (stereo not shown) (as salt: HCl) [Compound 1a, N,N-Diethyl-11-methyl-5-(pyridin-2-ylamino)-5H-benzo[a]phenoxazin-9-amine] |  |  |  |  | 
215 to 216 | CCCN(CCC)c1ccc2nc3c4ccccc4c(=Nc4ccncc4)cc-3oc2c1 [Compound 1D, N,N-Dipropyl-5-(pyridin-4-ylimino)-5H-benzo[a]phenoxazin-9-amine] |  |  |  |  | 
188 to 189 | CCCCN(CCCC)c1ccc2nc3c4ccccc4c(=Nc4ccncc4)cc-3oc2c1 [Compound 1E, N,N-Dibutyl-5-(pyridin-4-ylimino)-5H-benzo[a]phenoxazin-9-amine] |  |  |  |  | 
204 to 205 | CCN(CC)c1ccc2nc3c4ccc(Br)cc4c(=Nc4ccccn4)cc-3oc2c1 [Compound 1F, 3-Bromo-N,N-diethyl-5-(pyridin-2-ylimino)-5H-benzo[a]phenoxazin-9-amine] |  |  |  |  | 
229 to 230 | CCN(CC)c1ccc2nc3c4ccccc4c(=Nc4cc(C)nc5ccccc45)cc-3oc2c1 [Compound 1P, N,N-Diethyl-5-(2-methylquinoline-4-ylimino)-5H-benzo[a]phenoxazin-9-amine] |  |  |  |  | Selective toxicity (Plasmodium falciparum K1): 183; EC50 (Plasmodium falciparum K1): 0.036 µg/mL (≈ 0.0785 µM); EC50 (Rat L6 cells): 6.6 µg/mL (≈ 14.4 µM)
175 to 181 | CCOC(=O)C(Cc1ccc(O)cc1)N=c1cc2oc3cc(N(CC)CC)ccc3nc-2c2ccccc12 (stereo not shown) [Compound 1Q, Ethyl 2-[9-(Diethylamino)-5H-benzo[a]phenoxazin-5-ylideneamino]-3-(4-hydroxyphenyl)propanoate] |  |  |  |  | Selective toxicity (Plasmodium falciparum K1): 751; EC50 (Plasmodium falciparum K1): 0.045 µg/mL (≈ 0.0883 µM); EC50 (Rat L6 cells): 33.8 µg/mL (≈ 66.3 µM)
> 300 | c1ccc2c(=Nc3ccncc3)cc3oc4cc(N5CCOCC5)ccc4nc-3c2c1 [Compound 1e, 9-Morpholino-5-(pyridin-4-ylimino)-5H-benzo[a]phenoxazine] |  |  |  |  | 
266.8 to 268.2 | c1ccc2c(=Nc3ccncc3)cc3oc4cc(N5CCCCC5)ccc4nc-3c2c1 [Compound 1f, 9-(Piperidin-1-yl)-5-(pyridin-4-ylimino)-5H-benzo[a]phenoxazine] |  |  |  |  | 
